# Test system: 138582-337-R-J1-PDC spheroids with HUVEC/MSC, viability
# Experiment: Anticancer human tumor 138582-337-R-J1-PDC patient-derived Merkel cell tumor cell line growth inhibition [IpAb]
# Conditions: for IC50: curve of first compound; for viability, T/C: stronger effect = lower value
# In short: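 Combinations with ipatasertib or abemaciclib were tested on tumour spheroids holding HUVEC (25%) and MSC (15%) alongside 60% malignant cells. Top concentration was at or near clinical Cmax (10 microM if undefined), descending in half-log steps.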
# [1] = second compound 0.1 µM, first compound 0.0316 µM
# [2] = second compound 0.1 µM, first compound 0.1 µM
# [3] = second compound 0.1 µM, first compound 0.316 µM
# [4] = second compound 0.1 µM, first compound 1 µM
# [5] = second compound 0.1 µM, first compound 3.16 µM
# [6] = second compound 0.1 µM, first compound 10 µM
# [7] = second compound 0.316 µM, first compound 0.0316 µM
# [8] = second compound 0.316 µM, first compound 0.1 µM
# [9] = second compound 0.316 µM, first compound 0.316 µM
# [10] = second compound 0.316 µM, first compound 1 µM
# [11] = second compound 0.316 µM, first compound 3.16 µM
# [12] = second compound 0.316 µM, first compound 10 µM
# [13] = second compound 1 µM, first compound 0.0316 µM
# [14] = second compound 1 µM, first compound 0.1 µM
# [15] = second compound 1 µM, first compound 0.316 µM
# [16] = second compound 1 µM, first compound 1 µM
# [17] = second compound 1 µM, first compound 3.16 µM
# [18] = second compound 1 µM, first compound 10 µM
# [19] = second compound 3.16 µM, first compound 0.0316 µM
# [20] = second compound 3.16 µM, first compound 0.1 µM
# [21] = second compound 3.16 µM, first compound 0.316 µM
# [22] = second compound 3.16 µM, first compound 1 µM
# [23] = second compound 3.16 µM, first compound 3.16 µM
# [24] = second compound 3.16 µM, first compound 10 µM
# [25] = second compound 10 µM, first compound 0.0316 µM
# [26] = second compound 10 µM, first compound 0.1 µM
# [27] = second compound 10 µM, first compound 0.316 µM
# [28] = second compound 10 µM, first compound 1 µM
# [29] = second compound 10 µM, first compound 3.16 µM
# [30] = second compound 10 µM, first compound 10 µM
# [31] = second compound 0.1 µM, first compound 0.00949 µM
# [32] = second compound 0.1 µM, first compound 0.03 µM
# [33] = second compound 0.1 µM, first compound 0.0949 µM
# [34] = second compound 0.1 µM, first compound 0.3 µM
# [35] = second compound 0.316 µM, first compound 0.00949 µM
# [36] = second compound 0.316 µM, first compound 0.03 µM
# [37] = second compound 0.316 µM, first compound 0.0949 µM
# [38] = second compound 0.316 µM, first compound 0.3 µM
# [39] = second compound 1 µM, first compound 0.00949 µM
# [40] = second compound 1 µM, first compound 0.03 µM
# [41] = second compound 1 µM, first compound 0.0949 µM
# [42] = second compound 1 µM, first compound 0.3 µM
# [43] = second compound 3.16 µM, first compound 0.00949 µM
# [44] = second compound 3.16 µM, first compound 0.03 µM
# [45] = second compound 3.16 µM, first compound 0.0949 µM
# [46] = second compound 3.16 µM, first compound 0.3 µM
# [47] = second compound 10 µM, first compound 0.00949 µM
# [48] = second compound 10 µM, first compound 0.03 µM
# [49] = second compound 10 µM, first compound 0.0949 µM
# [50] = second compound 10 µM, first compound 0.3 µM
# 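Also: spheroids exposed to compounds for seven days.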
# 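For viability, T/C in this document: 100% = DMSO vehicle control viability.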
smiles,measurement,setting,value
C=CC(=O)N1CCN(c2nc(=O)n(-c3c(C)ccnc3C(C)C)c3nc(-c4c(O)cccc4F)c(F)cc23)C(C)C1 (stereo not given) + CC(C)NCC(C(=O)N1CCN(c2ncnc3c2C(C)CC3O)CC1)c1ccc(Cl)cc1,IC50,second compound 0.1 µM,> 10000 nM
same,IC50,second compound 0.316 µM,> 10000 nM
same,IC50,second compound 1 µM,> 10000 nM
same,IC50,second compound 3.16 µM,> 10000 nM
same,IC50,second compound 10 µM,31.6 nM
same,"viability, T/C",[1],90.2%
same,"viability, T/C",[2],95.5%
same,"viability, T/C",[3],91.4%
same,"viability, T/C",[4],101%
same,"viability, T/C",[5],115%
same,"viability, T/C",[6],168%
same,"viability, T/C",[7],90.6%
same,"viability, T/C",[8],86.2%
same,"viability, T/C",[9],83.5%
same,"viability, T/C",[10],90.1%
same,"viability, T/C",[11],105%
same,"viability, T/C",[12],132%
same,"viability, T/C",[13],71.9%
same,"viability, T/C",[14],66.6%
same,"viability, T/C",[15],71.4%
same,"viability, T/C",[16],74.9%
same,"viability, T/C",[17],86.6%
same,"viability, T/C",[18],77.5%
same,"viability, T/C",[19],57.1%
same,"viability, T/C",[20],56.8%
same,"viability, T/C",[21],59.4%
same,"viability, T/C",[22],63.4%
same,"viability, T/C",[23],69%
same,"viability, T/C",[24],54%
same,"viability, T/C",[25],38.7%
same,"viability, T/C",[26],49.9%
same,"viability, T/C",[27],47.9%
same,"viability, T/C",[28],47.6%
same,"viability, T/C",[29],52.4%
same,"viability, T/C",[30],32.3%
CC(=O)c1c(C)c2cnc(Nc3ccc(N4CCNCC4)cn3)nc2n(C2CCCC2)c1=O + CC(C)NCC(C(=O)N1CCN(c2ncnc3c2C(C)CC3O)CC1)c1ccc(Cl)cc1,IC50,second compound 0.1 µM,> 300 nM
same,IC50,second compound 0.316 µM,> 300 nM
same,IC50,second compound 1 µM,> 300 nM
same,IC50,second compound 3.16 µM,> 300 nM
same,IC50,second compound 10 µM,< 0.949 nM
same,"viability, T/C","second compound 0.1 µM, first compound 0.000949 µM",101%
same,"viability, T/C","second compound 0.1 µM, first compound 0.003 µM",98.6%
same,"viability, T/C",[31],92.3%
same,"viability, T/C",[32],94.3%
same,"viability, T/C",[33],89.2%
same,"viability, T/C",[34],103%
same,"viability, T/C","second compound 0.316 µM, first compound 0.000949 µM",76.2%
same,"viability, T/C","second compound 0.316 µM, first compound 0.003 µM",74.1%
same,"viability, T/C",[35],78.6%
same,"viability, T/C",[36],80.7%
same,"viability, T/C",[37],66.5%
same,"viability, T/C",[38],80.6%
same,"viability, T/C","second compound 1 µM, first compound 0.000949 µM",65.5%
same,"viability, T/C","second compound 1 µM, first compound 0.003 µM",62.5%
same,"viability, T/C",[39],59.6%
same,"viability, T/C",[40],52.8%
same,"viability, T/C",[41],65%
same,"viability, T/C",[42],64.3%
same,"viability, T/C","second compound 3.16 µM, first compound 0.000949 µM",51%
same,"viability, T/C","second compound 3.16 µM, first compound 0.003 µM",54.5%
same,"viability, T/C",[43],54%
same,"viability, T/C",[44],47.1%
same,"viability, T/C",[45],61.6%
same,"viability, T/C",[46],47%
same,"viability, T/C","second compound 10 µM, first compound 0.000949 µM",45.1%
same,"viability, T/C","second compound 10 µM, first compound 0.003 µM",44.3%
same,"viability, T/C",[47],45%
same,"viability, T/C",[48],38.9%
same,"viability, T/C",[49],37.8%
same,"viability, T/C",[50],44.1%
CC(C)(C)c1cnc(CSc2cnc(NC(=O)C3CCNCC3)s2)o1 + CC(C)NCC(C(=O)N1CCN(c2ncnc3c2C(C)CC3O)CC1)c1ccc(Cl)cc1,IC50,second compound 0.1 µM,94.5 nM
same,IC50,second compound 0.316 µM,76.7 nM
same,IC50,second compound 1 µM,52.9 nM
same,IC50,second compound 3.16 µM,37.1 nM
same,IC50,second compound 10 µM,< 9.49 nM
same,"viability, T/C",[31],104%
same,"viability, T/C",[32],97.3%
same,"viability, T/C",[33],50.3%
same,"viability, T/C",[34],0.31%
same,"viability, T/C","second compound 0.1 µM, first compound 0.949 µM",0.3%
same,"viability, T/C","second compound 0.1 µM, first compound 3 µM",0.37%
same,"viability, T/C",[35],79%
same,"viability, T/C",[36],74.3%
same,"viability, T/C",[37],44.2%
same,"viability, T/C",[38],0.31%
same,"viability, T/C","second compound 0.316 µM, first compound 0.949 µM",0.36%
same,"viability, T/C","second compound 0.316 µM, first compound 3 µM",0.44%
same,"viability, T/C",[39],72.7%
same,"viability, T/C",[40],72.2%
same,"viability, T/C",[41],27%
same,"viability, T/C",[42],0.41%
same,"viability, T/C","second compound 1 µM, first compound 0.949 µM",0.35%
same,"viability, T/C","second compound 1 µM, first compound 3 µM",0.37%
same,"viability, T/C",[43],55.2%
same,"viability, T/C",[44],58.7%
same,"viability, T/C",[45],19.5%
same,"viability, T/C",[46],0.33%
same,"viability, T/C","second compound 3.16 µM, first compound 0.949 µM",0.23%
same,"viability, T/C","second compound 3.16 µM, first compound 3 µM",0.81%
same,"viability, T/C",[47],43.8%
same,"viability, T/C",[48],43.9%
same,"viability, T/C",[49],5.74%
same,"viability, T/C",[50],0.5%
same,"viability, T/C","second compound 10 µM, first compound 0.949 µM",0.35%
same,"viability, T/C","second compound 10 µM, first compound 3 µM",0.49%
Cn1nccc1Nc1nccc(-c2ccn(C(CO)c3ccc(Cl)c(F)c3)c(=O)c2)n1 (stereo not given) + CC(C)NCC(C(=O)N1CCN(c2ncnc3c2C(C)CC3O)CC1)c1ccc(Cl)cc1,IC50,second compound 0.1 µM,> 10000 nM
same,IC50,second compound 0.316 µM,> 10000 nM
same,IC50,second compound 1 µM,1700 nM
same,IC50,second compound 3.16 µM,158 nM
same,IC50,second compound 10 µM,< 31.6 nM
same,"viability, T/C",[1],104%
same,"viability, T/C",[2],88.8%
same,"viability, T/C",[3],91.8%
same,"viability, T/C",[4],100%
same,"viability, T/C",[5],108%
same,"viability, T/C",[6],124%
same,"viability, T/C",[7],82.8%
same,"viability, T/C",[8],82.8%
same,"viability, T/C",[9],77%
same,"viability, T/C",[10],73.5%
same,"viability, T/C",[11],75.8%
same,"viability, T/C",[12],70%
same,"viability, T/C",[13],68.2%
same,"viability, T/C",[14],70.5%
same,"viability, T/C",[15],67.6%
same,"viability, T/C",[16],51.4%
same,"viability, T/C",[17],44.8%
same,"viability, T/C",[18],17.1%
same,"viability, T/C",[19],47.4%
same,"viability, T/C",[20],55.1%
same,"viability, T/C",[21],48.8%
same,"viability, T/C",[22],38.8%
same,"viability, T/C",[23],19.9%
same,"viability, T/C",[24],4.47%
same,"viability, T/C",[25],45.9%
same,"viability, T/C",[26],47.5%
same,"viability, T/C",[27],34.2%
same,"viability, T/C",[28],22.8%
same,"viability, T/C",[29],6.51%
same,"viability, T/C",[30],1.06%
